Where no end group is shown, it is not given here.
Experiments:
S. Typhimurium H1-001 [1] = format: cell-based, Salmonella enterica serovar Typhimurium; conditions: strain H1-001
Text: (§1) All tests were done in triplicate.

S. Typhimurium H1-011 [2] = format: cell-based, Salmonella enterica serovar Typhimurium; conditions: strain H1-011
Text: as §1

S. Typhimurium H1-015 [3] = format: cell-based, Salmonella enterica serovar Typhimurium; conditions: strain H1-015
Text: as §1

[4] = test system: Salmonella Typhimurium ATCC 13311; format: cell-based, Salmonella enterica serovar Typhimurium; conditions: broth microdilution in MHB, 37 °C, 24 h, visible inspection, triplicate
Text: as §1

S. Typhimurium H1-006 [5] = assay: MIC/MBC against drug-resistant isolate; format: cell-based, Salmonella enterica serovar Typhimurium; conditions: strain H1-006
Text: as §1

S. Typhimurium H1-041 [6] = assay: MIC/MBC against drug-resistant isolate; format: cell-based, Salmonella enterica serovar Typhimurium; conditions: strain H1-041
Text: as §1

S. Typhimurium H1-062 [7] = assay: MIC/MBC against drug-resistant isolate; format: cell-based, Salmonella enterica serovar Typhimurium; conditions: strain H1-062
Text: as §1

4,5,12:i:- H1-024 = format: cell-based, Salmonella enterica 4,5,12:i:-; conditions: strain H1-024
Text: as §1

4,5,12:i:- H1-100 [8] = format: cell-based, Salmonella enterica 4,5,12:i:-; conditions: strain H1-100
Text: as §1

4,5,12:i:- H2-010 = format: cell-based, Salmonella enterica 4,5,12:i:-; conditions: strain H2-010
Text: as §1

4,5,12:i:- H2-039 [9] = format: cell-based, Salmonella enterica 4,5,12:i:-; conditions: strain H2-039
Text: as §1

4,5,12:i:- H2-042 [10] = format: cell-based, Salmonella enterica 4,5,12:i:-; conditions: strain H2-042
Text: as §1

4,5,12:i:- H2-047 = format: cell-based, Salmonella enterica 4,5,12:i:-; conditions: strain H2-047
Text: as §1

4,5,12:i:- H2-049 = format: cell-based, Salmonella enterica 4,5,12:i:-; conditions: strain H2-049
Text: as §1

4,5,12:i:- H2-067 = format: cell-based, Salmonella enterica 4,5,12:i:-; conditions: strain H2-067
Text: as §1

4,5,12:i:- H2-071 = format: cell-based, Salmonella enterica 4,5,12:i:-; conditions: strain H2-071
Text: as §1

4,5,12:i:- H2-089 [11] = format: cell-based, Salmonella enterica 4,5,12:i:-; conditions: strain H2-089
Text: as §1

[12] = test system: 16 drug-resistant S. Typhimurium and 4,5,12:i:- isolates from Thailand; format: cell-based, Salmonella enterica; conditions: summary over 16 isolates; nisin up to maximum concentration of 16,000 µg/ml
Text: as §1

4,5,12:i:- H1-100 [13] = conditions: checkerboard
Experimental: (§2) Effects of the combination of A11 with nisin against S. Typhimurium ATCC 13311 and 10 drug-resistant S. Typhimurium and S. enterica isolates were determined by the checkerboard titration method. Briefly, 10 drug-resistant S. Typhimurium were grown to a concentration of 1 × 10^7 CFU/ml in fresh TSB. Aliquots (25 µl) of nisin (final concentrations of 0.5–16 mg/ml) and A11 (final concentrations of 0.98–250 µg/ml) were added into 96-well plates containing 50 µl of bacterial suspension and cultured at 37 °C. […] ICA is the concentration required to produce the same effect as compound A when used alone, ICB is the concentration required to produce the same effect as compound B when used alone. The CI results were interpreted as follows: a CI of less than 1 indicates synergistic effect, a CI equal to 1 indicates additive effect, and a CI of more than 1 indicates antagonistic effect.

4,5,12:i:- H2-039 [14] = conditions: checkerboard
Experimental: as §2

4,5,12:i:- H2-042 [15] = conditions: checkerboard
Experimental: as §2

4,5,12:i:- H2-089 [16] = conditions: checkerboard
Experimental: as §2

S. Typhimurium ATCC13311 = conditions: checkerboard, TSB, 37 °C, 24 h
Experimental: as §2

S. Typhimurium H1-001 [17] = conditions: checkerboard
Experimental: as §2

S. Typhimurium H1-006 [18] = conditions: checkerboard
Experimental: as §2

S. Typhimurium H1-011 [19] = conditions: checkerboard
Experimental: as §2

S. Typhimurium H1-015 [20] = conditions: checkerboard
Experimental: as §2

S. Typhimurium H1-041 [21] = conditions: checkerboard
Experimental: as §2

S. Typhimurium H1-062 [22] = conditions: checkerboard
Experimental: as §2

[23] = test system: S. Typhimurium ATCC 13311 and 10 drug-resistant S. Typhimurium and S. enterica isolates; assay: Checkerboard titration, A11 with nisin, summary over strains; format: cell-based, Salmonella enterica; conditions: summary over tested strains
Experimental: as §2

Substance: Nisin (ITSISLCTPGCKTGALMGCNMKTATCHCSIHVSK; not fully specified (some residues, bridges); also: lantibiotic nisin-A: thioether (lanthionine) rings and dehydrated residues, places not given here; UniProt P13068 24-57, looked up) [bacteriocin, lantibiotic produced by Lactococcus lactis subsp. lactis, approved food preservative]
- MIC (S. Typhimurium H1-001 [1]): > 16,000 µg/ml
- MIC (S. Typhimurium H1-011 [2]): > 16,000 µg/ml
- MIC (S. Typhimurium H1-015 [3]): > 16,000 µg/ml
- MIC [4]: 16,000 µg/ml
- MIC (S. Typhimurium H1-006 [5]): > 16,000 µg/ml
- MIC (S. Typhimurium H1-041 [6]): > 16,000 µg/ml
- MIC (S. Typhimurium H1-062 [7]): > 16,000 µg/ml
- MIC (4,5,12:i:- H1-024): > 16,000 µg/ml
- MIC (4,5,12:i:- H1-100 [8]): > 16,000 µg/ml
- MIC (4,5,12:i:- H2-010): > 16,000 µg/ml
- MIC (4,5,12:i:- H2-039 [9]): > 16,000 µg/ml
- MIC (4,5,12:i:- H2-042 [10]): > 16,000 µg/ml
- MIC (4,5,12:i:- H2-047): > 16,000 µg/ml
- MIC (4,5,12:i:- H2-049): > 16,000 µg/ml
- MIC (4,5,12:i:- H2-067): > 16,000 µg/ml
- MIC (4,5,12:i:- H2-071): > 16,000 µg/ml
- MIC (4,5,12:i:- H2-089 [11]): > 16,000 µg/ml
- MICs against the 16 drug-resistant S. enterica isolates [12]: > 16,000 µg/ml
- MIC (combination) (4,5,12:i:- H1-100 [13]; A11 combined with nisin): 500 µg/mL
- MIC (alone) (4,5,12:i:- H1-100 [13]; TSB, 37 °C, 24 h): > 16,000 µg/ml
- MIC (combination) (4,5,12:i:- H2-039 [14]; A11 combined with nisin): 500 µg/mL
- MIC (alone) (4,5,12:i:- H2-039 [14]; TSB, 37 °C, 24 h): > 16,000 µg/ml
- MIC (combination) (4,5,12:i:- H2-042 [15]; A11 combined with nisin): 500 µg/mL
- MIC (alone) (4,5,12:i:- H2-042 [15]; TSB, 37 °C, 24 h): > 16,000 µg/ml
- MIC (combination) (4,5,12:i:- H2-089 [16]; A11 combined with nisin): 500 µg/mL
- MIC (alone) (4,5,12:i:- H2-089 [16]; TSB, 37 °C, 24 h): > 16,000 µg/ml
- MIC (combination) (S. Typhimurium ATCC13311; A11 combined with nisin): 4000 µg/mL
- MIC (alone) (S. Typhimurium ATCC13311): 16,000 µg/ml
- MIC (combination) (S. Typhimurium H1-001 [17]; A11 combined with nisin): 500 µg/mL
- MIC (alone) (S. Typhimurium H1-001 [17]; TSB, 37 °C, 24 h): > 16,000 µg/ml
- MIC (combination) (S. Typhimurium H1-006 [18]; A11 combined with nisin): 500 µg/mL
- MIC (alone) (S. Typhimurium H1-006 [18]; TSB, 37 °C, 24 h): > 16,000 µg/ml
- MIC (combination) (S. Typhimurium H1-011 [19]; A11 combined with nisin): 500 µg/mL
- MIC (alone) (S. Typhimurium H1-011 [19]; TSB, 37 °C, 24 h): > 16,000 µg/ml
- MIC (combination) (S. Typhimurium H1-015 [20]; A11 combined with nisin): 500 µg/mL
- MIC (alone) (S. Typhimurium H1-015 [20]; TSB, 37 °C, 24 h): > 16,000 µg/ml
- MIC (combination) (S. Typhimurium H1-041 [21]; A11 combined with nisin): 500 µg/mL
- MIC (alone) (S. Typhimurium H1-041 [21]; TSB, 37 °C, 24 h): > 16,000 µg/ml
- MIC (combination) (S. Typhimurium H1-062 [22]; A11 combined with nisin): 500 µg/mL
- MIC (alone) (S. Typhimurium H1-062 [22]; TSB, 37 °C, 24 h): > 16,000 µg/ml
- MIC of nisin in combination with A11 [23]: 500 µg/mL
